In assay [1] the target is human 5-HT1B receptor (Homo sapiens, UniProt P28222). Kind of assay: GTPγS agonist assay, 5-HT1B.
Description: The mixture was shaken for 2 minutes prior to a 60 min incubation. It was then centrifuged for 10 minutes and counted for 1 minute with a Perkin Elmer TopCount reader. The resulting emission of light was recorded using a luminometer. Agonist percentage activation determinations were obtained by comparing with the Emax of the reference agonist α-methyl-5-HT.
Assay [2] concerns Somatostatin (SST1~SST5). Kind of assay: Somatostatin receptor GTPγS assays. Format: biochemical, human. On the procedure: Reagents used were the following: Assay buffer (20 mM HEPES, pH 7.4; 100 mM NaCl; 10 μg/mL saponin; 30 mM MgCl2); Membranes (recombinant human receptor membrane extracts were thawed on ice and diluted in assay buffer to give 1000 μg/mL ([…]) and kept on ice); GDP (diluted in assay buffer to give 30 μM solution (3 μM final concentration); beads (PVT-WGA (Amersham, RPNQ001), diluted in assay buffer at 25 mg/mL (0.25 mg/10 μL)); GTPγ^35S (Perkin Elmer, NEG030X), diluted in assay buffer to give 0.1 nM (final concentration); and ligand (agonist/antagonist diluted in assay buffer).
Membranes were mixed with GDP (1:1) and incubated for at least 15 minutes on ice. In parallel GTPγ^35S was mixed with the beads (1:1) just before starting the reaction. The following reagents were successively added in the wells of an Optiplate (Perkin Elmer): 50 μL test compound or reference ligand, 20 μL of the membranes:GDP mix (then 15 minute incubation for antagonist test), 10 μL of reference agonist at historical EC80 (for antagonist test) or 10 μL of assay buffer (for agonist test) and 20 μL of the GTPγ^35S:beads mix. […] The plates were then centrifuged for 10 minutes at 2000 rpm and incubated at room temperature for 1 hour and counted for 1 min/well with a Perkin Elmer TopCount reader.

Assay [3] concerns the target T1, NK1 (Homo sapiens, UniProt P25103).
T1 construct: expressed in transfected cells; host or cells: CHO-AEQ (CHO-K1 with mitochondrial apoaequorin)
Kind of assay: Neurokinin receptor Aequorin assay. Format: cell-based. The settings on record: antagonism. On the procedure:
(§1) CHO-K1 cells coexpressing mitochondrial apoaequorin and the recombinant human receptor of interest were grown to mid-log phase in culture media without antibiotics and then detached with PBS-EDTA, centrifuged and resuspended in assay buffer (DMEM/HAM's F12 with HEPES, without phenol red+0.1% BSA, protease free) at a concentration of 1×10^6 cell/mL. Cells were incubated at room temperature for at least 4 hours with coelenterazine h. Reference agonist/antagonist was tested to evaluate the performance of the assay and to determine EC50/IC50.
(§2) 50 μL of the cell suspension was mixed with 50 μL of test or reference agonist in a 96-well plate. […] For antagonist testing, 100 μL of the reference agonist at its EC80 was injected on the mix of cells and test compound, following an incubation of 15 minutes after the first injection. The resulting emission of light was r recorded using Hamamatsu Functional Drug Screening System 6000 (FDSS 6000) luminometer. To standardize the emission of recorded light (and determine of the “100% signal”) across plates and across different experiments, some wells contained 100 μM digitonin or a saturating concentration of ATP (20 μM).

Assay [4] concerns VIP/PACAP (PAC1/VPAC1/VPAC2). Nature of the assay: VIP/PACAP receptor Aequorin assays. Format: cell-based, human. On the procedure: as §1, §2
Assay [5] has as its target T2, D2 receptor (Homo sapiens, UniProt P14416).
T2 construct: expressed in transfected cells
Nature of the assay: Agonist activity at the D2 receptor. The settings on record: read-out: EC50, D2 receptor agonism. In kind it is cell-based. On the procedure: The assay was performed analogously to the assay described in Example 4.

The target in assay [6] is T3, α1A receptor (Homo sapiens, UniProt P35348).
T3 construct: expressed in transfected cells
T3 sequence (P35348 whole entry): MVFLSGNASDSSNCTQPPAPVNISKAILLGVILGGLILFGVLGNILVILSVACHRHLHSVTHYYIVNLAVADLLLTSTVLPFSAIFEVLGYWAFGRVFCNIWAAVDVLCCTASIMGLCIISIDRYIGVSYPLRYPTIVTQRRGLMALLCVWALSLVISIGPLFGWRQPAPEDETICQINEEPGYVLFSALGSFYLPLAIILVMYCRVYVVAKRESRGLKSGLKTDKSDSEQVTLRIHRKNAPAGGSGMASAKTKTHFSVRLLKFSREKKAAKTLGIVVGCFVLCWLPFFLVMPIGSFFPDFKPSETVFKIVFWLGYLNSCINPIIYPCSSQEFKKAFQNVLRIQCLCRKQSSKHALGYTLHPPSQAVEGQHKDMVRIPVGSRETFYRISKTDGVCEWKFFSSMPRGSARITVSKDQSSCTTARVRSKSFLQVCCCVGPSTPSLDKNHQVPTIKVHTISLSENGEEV
Kind of assay: Competitive antagonist activity, adrenergic α1A. The settings on record: read-out: IC50, α1A antagonism. Format: cell-based.

For assay [7], the target named is human α2A receptor (Homo sapiens, UniProt P08913). Nature of the assay: GTPγS antagonist assay, α2A. In kind it is biochemical. The note with it: read-out: IC50, α2A antagonism.
Sequence of human α2A receptor (P08913 whole entry): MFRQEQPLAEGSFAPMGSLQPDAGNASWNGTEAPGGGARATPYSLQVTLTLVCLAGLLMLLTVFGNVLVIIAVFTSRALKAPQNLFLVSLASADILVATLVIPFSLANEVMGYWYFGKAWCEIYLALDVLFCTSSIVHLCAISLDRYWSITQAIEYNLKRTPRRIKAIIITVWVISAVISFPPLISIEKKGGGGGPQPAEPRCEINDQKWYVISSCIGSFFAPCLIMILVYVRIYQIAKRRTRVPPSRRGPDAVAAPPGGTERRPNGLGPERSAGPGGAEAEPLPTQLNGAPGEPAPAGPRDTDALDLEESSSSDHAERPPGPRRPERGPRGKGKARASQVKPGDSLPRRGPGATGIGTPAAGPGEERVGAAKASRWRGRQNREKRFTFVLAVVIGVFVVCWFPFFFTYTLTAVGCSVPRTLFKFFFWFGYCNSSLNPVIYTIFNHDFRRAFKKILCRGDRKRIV
Assay [8] relates to Glutamate (mGlu3/mGlu5/mGlu7). Kind of assay: Glutamate receptor screen (Aequorin mGlu3/mGlu5, cAMP mGlu7). Format: cell-based, human. On the procedure: For mGlu3 and mGlu5, CHO-K1 cells coexpressing mitochondrial apoaequorin and recombinant human receptor grown to mid-log phase in culture media without antibiotics and supplemented with doxycycline, (final concentration of 600 ng doxycycline/mL), was detached with PBS-EDTA, centrifuged and resuspended in assay buffer (HBSS, 2.1 mM CaCl2, 3 μg/mL GPT (Glutamate-Pyruvate transaminase), 4 mM MEM Sodium Pyruvate, 0.1% BSA protease free) at a concentration of 1×10^6 cells/mL. Cells were incubated at room temperature for at least 4 hours with coelenterazine h. Reference agonist/antagonist was tested to evaluate the performance of the assay and to determine EC50/IC50. […]
Cells expressing the human recombinant receptor of interest were grown in media without antibiotic and detached by gentle flushing with PBS-EDTA (5 mM EDTA), recovered by centrifugation and resuspended in assay buffer (KRH: 5 mM KCl, 1.25 mM MgSO4, 124 mM NaCl, 25 mM HEPES, 13.3 mM glucose, 1.25 mM KH2PO4, 1.45 mM CaCl2, 0.5 g/L BSA). […] Lysis buffer was added and after a 1 hour incubation, cAMP concentrations was determined according to the manufacturer specification with the HTRF kit. […] Lysis buffer was added and after a 1 hour incubation, cAMP concentrations were determined according to the manufacturer specification, with the HTRF kit.

Assay [9] has as its target T4, OX1 (Homo sapiens, UniProt O43613).
T4 construct: expressed in transfected cells; host or cells: CHO-AEQ (CHO-K1 with mitochondrial apoaequorin)
Nature of the assay: Orexin receptor Aequorin assay. The settings on record: antagonism. In kind it is cell-based. On the procedure:
as §1, §2

Molecules are shown by their SMILES. Bounds are passed on as bounds.

Usually EC50 stands for the midpoint of the concentration-response curve. A word on the IC50: it is the point on the concentration scale where inhibition reaches its midpoint.

Sequence of human 5-HT1B receptor (P28222 whole entry): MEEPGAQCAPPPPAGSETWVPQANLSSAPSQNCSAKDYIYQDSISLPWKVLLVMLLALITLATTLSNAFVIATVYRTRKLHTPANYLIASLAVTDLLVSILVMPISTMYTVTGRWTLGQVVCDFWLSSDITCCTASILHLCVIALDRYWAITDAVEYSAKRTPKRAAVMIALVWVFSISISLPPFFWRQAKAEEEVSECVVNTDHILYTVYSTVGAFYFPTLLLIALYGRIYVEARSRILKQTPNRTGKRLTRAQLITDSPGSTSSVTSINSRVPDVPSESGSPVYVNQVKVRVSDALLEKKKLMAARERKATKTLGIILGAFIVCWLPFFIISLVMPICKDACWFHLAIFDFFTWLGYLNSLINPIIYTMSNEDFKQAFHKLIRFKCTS
T4 sequence (O43613 whole entry): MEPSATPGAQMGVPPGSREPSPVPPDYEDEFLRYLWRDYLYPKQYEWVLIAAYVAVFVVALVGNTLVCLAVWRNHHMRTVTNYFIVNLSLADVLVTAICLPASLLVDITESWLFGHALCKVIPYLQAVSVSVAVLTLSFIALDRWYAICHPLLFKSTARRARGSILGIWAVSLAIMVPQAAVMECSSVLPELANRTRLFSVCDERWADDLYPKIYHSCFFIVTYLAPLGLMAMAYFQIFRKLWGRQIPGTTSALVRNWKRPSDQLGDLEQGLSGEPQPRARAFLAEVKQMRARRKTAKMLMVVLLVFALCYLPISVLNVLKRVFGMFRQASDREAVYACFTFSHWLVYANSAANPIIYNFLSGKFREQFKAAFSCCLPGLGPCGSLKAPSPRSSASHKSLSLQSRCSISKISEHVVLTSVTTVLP
T2 sequence (P14416 whole entry): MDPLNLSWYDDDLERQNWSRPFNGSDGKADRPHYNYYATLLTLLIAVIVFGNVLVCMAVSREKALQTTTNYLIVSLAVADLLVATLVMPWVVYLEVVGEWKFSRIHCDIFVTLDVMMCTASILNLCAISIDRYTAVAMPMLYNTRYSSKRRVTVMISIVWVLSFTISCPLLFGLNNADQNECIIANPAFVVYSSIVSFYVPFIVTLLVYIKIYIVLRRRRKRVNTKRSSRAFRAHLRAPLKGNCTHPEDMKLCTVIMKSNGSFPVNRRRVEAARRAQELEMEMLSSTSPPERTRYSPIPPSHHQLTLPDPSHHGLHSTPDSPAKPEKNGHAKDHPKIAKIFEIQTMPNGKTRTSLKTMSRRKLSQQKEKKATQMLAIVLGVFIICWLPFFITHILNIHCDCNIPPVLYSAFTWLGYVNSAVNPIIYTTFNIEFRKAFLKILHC
T1 sequence (P25103 whole entry): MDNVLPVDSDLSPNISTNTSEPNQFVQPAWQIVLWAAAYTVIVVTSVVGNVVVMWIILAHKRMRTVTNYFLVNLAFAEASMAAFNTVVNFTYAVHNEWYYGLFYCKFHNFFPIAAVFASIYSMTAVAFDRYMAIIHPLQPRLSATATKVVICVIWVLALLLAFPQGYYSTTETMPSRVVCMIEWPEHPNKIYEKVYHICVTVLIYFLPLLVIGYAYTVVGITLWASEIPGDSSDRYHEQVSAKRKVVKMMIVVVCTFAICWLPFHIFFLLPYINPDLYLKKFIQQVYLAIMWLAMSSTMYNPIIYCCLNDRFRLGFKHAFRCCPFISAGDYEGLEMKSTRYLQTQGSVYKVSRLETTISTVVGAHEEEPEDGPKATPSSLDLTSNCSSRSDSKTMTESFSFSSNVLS

In the case of `CN1C[C@H](C(=O)N[C@]2(C)O[C@@]3(O)[C@@H]4CCCN4C(=O)[C@H](Cc4ccccc4)N3C2=O)CC2c3cccc4[nH]c(C(F)(F)F)c(c34)CC21` (stereo partly drawn) [2-CF3-dihydroergotamine], the 50% effective concentration (EC50) in assay [1] was found to be 406 nM; in assay [5], 218 nM. Also, the “Activity (Agonism: EC50; Antagonism: IC50)” value in [2], in [4] and in assay [8] was “Inactive” each time. The half-maximal inhibitory concentration (IC50) in assay [3] is greater than 1000 nM; in assay [6], 207 nM; in assay [7], 404 nM; in assay [9] it was greater than 10000 nM.
